From patent US20250255874A1, “Methods for Treating Immune Thrombocytopenia By Administering (R)-2-[3-[4-Amino-3-(2-Fluoro-4-Phenoxy-Phenyl)Pyrazolo[3,4-D]Pyrimidin-1-YL]Piperidine-1-Carbonyl]-4-Methyl-4-[4-(Oxetan-3-YL)Piperazin-1-YL]Pent-2-Enentrile” (Principia Biopharma Inc., priority 2022, published 2025)
Marks after values point to notes of the source that are not given here.

Tested on: patients with relapsed/refractory immune thrombocytopenia
Experiment: Phase 1/2 study (NCT03395210) Part A, safety;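 also: adverse events graded by NCI CTCAE version 4.0, with worsening of pre-existing conditions counted as adverse events, analysed in the Safety Population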
[1] = 45 patients who initiated 400 bid

SMILES: CC(C)(C=C(C#N)C(=O)N1CCC[C@@H](n2nc(-c3ccc(Oc4ccccc4)cc3F)c3c(N)ncnc32)C1)N1CCN(C2COC2)CC1 [rilzabrutinib, (R)-2-[3-[4-amino-3-(2-fluoro-4-phenoxy-phenyl)pyrazolo[3,4-d]pyrimidin-1-yl]piperidine-1-carbonyl]-4-methyl-4-[4-(oxetan-3-yl)piperazin-1-yl]pent-2-enenitrile]
- patients with ≥1 treatment-related, treatment-emergent adverse event (45 patients who initiated 400 mg bid): 84%
- treatment-related any-grade TEAE: diarrhea [1]: 36%
- treatment-related any-grade TEAE: fatigue [1]: 9%
- treatment-related any-grade TEAE: nausea [1]: 31%
- patients with ≥1 treatment-related, treatment-emergent adverse event (60 patients who initiated rilzabrutinib at all doses): 52%
- All related TEAEs, Treatment-Related TEAEs, Grade 1 (N = 45 initiated 400 mg bid): 23 (51) number of patients (percent)
- All related TEAEs, Treatment-Related TEAEs, Grade 2 (N = 45 initiated 400 mg bid): 15 (33) number of patients (percent)
- Diarrhea, Treatment-Related TEAEs, Grade 1 (N = 45 initiated 400 mg bid): 13 (29) number of patients (percent)
- Diarrhea, Treatment-Related TEAEs, Grade 2 (N = 45 initiated 400 mg bid): 3 (7) number of patients (percent)
- Fatigue, Treatment-Related TEAEs, Grade 1 (N = 45 initiated 400 mg bid): 3 (7) number of patients (percent)
- Fatigue, Treatment-Related TEAEs, Grade 2 (N = 45 initiated 400 mg bid): 1 (2) number of patients (percent)
- Nausea, Treatment-Related TEAEs, Grade 1 (N = 45 initiated 400 mg bid): 12 (27) number of patients (percent)
- Nausea, Treatment-Related TEAEs, Grade 2 (N = 45 initiated 400 mg bid): 2 (4) number of patients (percent)
- Vomiting, Treatment-Related TEAEs, Grade 1 (N = 45 initiated 400 mg bid): 2 (4) number of patients (percent)
- Vomiting, Treatment-Related TEAEs, Grade 2 (N = 45 initiated 400 mg bid): 1 (2) number of patients (percent)
- Abdominal discomfort, TEAEs Due to Any Cause, Any grade (Safety Population, N = 60): 1 (2) number of patients (percent)
- Abdominal discomfort, TEAEs Due to Any Cause, Grade 1 (Safety Population, N = 60): 1 (2) number of patients (percent)
- Abdominal discomfort, Treatment-Related TEAEs, Any grade (Safety Population, N = 60): 1 (2) number of patients (percent)
- Abdominal discomfort, Treatment-Related TEAEs, Grade 1 (Safety Population, N = 60): 1 (2) number of patients (percent)
- Abdominal distension, TEAEs Due to Any Cause, Any grade (Safety Population, N = 60): 6 (10) number of patients (percent)
- Abdominal distension, TEAEs Due to Any Cause, Grade 1 (Safety Population, N = 60): 6 (10) number of patients (percent)
- Abdominal distension, Treatment-Related TEAEs, Any grade (Safety Population, N = 60): 4 (7) number of patients (percent)
- Abdominal distension, Treatment-Related TEAEs, Grade 1 (Safety Population, N = 60): 4 (7) number of patients (percent)
- Abdominal pain, TEAEs Due to Any Cause, Any grade (Safety Population, N = 60): 3 (5) number of patients (percent)
- Abdominal pain, TEAEs Due to Any Cause, Grade 1 (Safety Population, N = 60): 1 (2) number of patients (percent)
- Abdominal pain, TEAEs Due to Any Cause, Grade 2 (Safety Population, N = 60): 2 (3) number of patients (percent)
- Abdominal pain, Treatment-Related TEAEs, Any grade (Safety Population, N = 60): 2 (3) number of patients (percent)
- Abdominal pain, Treatment-Related TEAEs, Grade 2 (Safety Population, N = 60): 2 (3) number of patients (percent)
- Abnormal dreams, TEAEs Due to Any Cause, Any grade (Safety Population, N = 60): 1 (2) number of patients (percent)
- Abnormal dreams, TEAEs Due to Any Cause, Grade 1 (Safety Population, N = 60): 1 (2) number of patients (percent)
- Abnormal dreams, Treatment-Related TEAEs, Any grade (Safety Population, N = 60): 1 (2) number of patients (percent)
- Abnormal dreams, Treatment-Related TEAEs, Grade 1 (Safety Population, N = 60): 1 (2) number of patients (percent)
- Akathisia, TEAEs Due to Any Cause, Any grade (Safety Population, N = 60): 1 (2) number of patients (percent)
- Akathisia, TEAEs Due to Any Cause, Grade 1 (Safety Population, N = 60): 1 (2) number of patients (percent)
- Akathisia, Treatment-Related TEAEs, Any grade (Safety Population, N = 60): 1 (2) number of patients (percent)
- Akathisia, Treatment-Related TEAEs, Grade 1 (Safety Population, N = 60): 1 (2) number of patients (percent)
- Alopecia, TEAEs Due to Any Cause, Any grade (Safety Population, N = 60): 2 (3) number of patients (percent)
- Alopecia, TEAEs Due to Any Cause, Grade 1 (Safety Population, N = 60): 2 (3) number of patients (percent)
- Anemia, TEAEs Due to Any Cause, Any grade (Safety Population, N = 60): 4 (7) number of patients (percent)
- Anemia, TEAEs Due to Any Cause, Grade 2 (Safety Population, N = 60): 2 (3) number of patients (percent)
- Anemia, TEAEs Due to Any Cause, Grade 3/4 (Safety Population, N = 60): 2 (3) number of patients (percent)
- Any TEAE, TEAEs Due to Any Cause, Any grade (Safety Population, N = 60): 48 (80) number of patients (percent)
- Any TEAE, TEAEs Due to Any Cause, Grade 1 (Safety Population, N = 60): 43 (72) number of patients (percent)
- Any TEAE, TEAEs Due to Any Cause, Grade 2 (Safety Population, N = 60): 30 (50) number of patients (percent)
- Any TEAE, TEAEs Due to Any Cause, Grade 3/4 (Safety Population, N = 60): 8 (13)^† number of patients (percent)
- Any TEAE, Treatment-Related TEAEs, Any grade (Safety Population, N = 60): 31 (52) number of patients (percent)
- Any TEAE, Treatment-Related TEAEs, Grade 1 (Safety Population, N = 60): 27 (45) number of patients (percent)
- Any TEAE, Treatment-Related TEAEs, Grade 2 (Safety Population, N = 60): 15 (25) number of patients (percent)
- Arthralgia, TEAEs Due to Any Cause, Any grade (Safety Population, N = 60): 5 (8) number of patients (percent)
- Arthralgia, TEAEs Due to Any Cause, Grade 1 (Safety Population, N = 60): 3 (5) number of patients (percent)
- Arthralgia, TEAEs Due to Any Cause, Grade 2 (Safety Population, N = 60): 2 (3) number of patients (percent)
- Arthropod bite, TEAEs Due to Any Cause, Any grade (Safety Population, N = 60): 3 (5) number of patients (percent)
- Arthropod bite, TEAEs Due to Any Cause, Grade 1 (Safety Population, N = 60): 3 (5) number of patients (percent)
- Back pain, TEAEs Due to Any Cause, Any grade (Safety Population, N = 60): 8 (13) number of patients (percent)
- Back pain, TEAEs Due to Any Cause, Grade 1 (Safety Population, N = 60): 7 (12) number of patients (percent)
